Drawing on PubChem BioAssay AID687005 (Broad Institute, 2013), this text covers activity change, negative = cytotoxicity for 58 molecules.

Inconclusive results are not listed. Calls of active or inactive are those of the source.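 How the source made its calls: active means Compounds that reduce signal, with fitted half-maximal dose at or under twice the top valid tested dose; inconclusive means Poor fit, or flat curve losing 30 to 70% of signal; inactive means Potency past limit, flat within 30%, or opposite direction.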

The first test can be described thus: viability loss in HEK293T cells – cell-based, ATP luminescence, cherry-pick samples, cytotoxicity control, dose response (AID 687005). Conditions: HEK293T viability, ATP luminescence (CellTiter-Glo), 48 h; at 23.5 µM (top of the series). (In general: Cellular ATP, detected with luciferase, serves as a proxy for viable cell number.)
On to `C[C@H](CO)N1C[C@H](C)[C@@H](CN(C)C(=O)Nc2ccc(F)cc2)Oc2c(NS(=O)(=O)c3ccccc3)cccc2C1=O`, for which the activity change, negative = cytotoxicity is -4.44% (inactive).

Turning to `C[C@H]1CN([C@@H](C)CO)C(=O)c2cc(NC(=O)Nc3ccc(F)cc3)ccc2O[C@@H]1CN(C)S(C)(=O)=O`, the activity change, negative = cytotoxicity is 2.53% (inactive).

The same test, now with this note: HEK293T viability, ATP luminescence (CellTiter-Glo), 48 h; at 26 µM (top of the series).
Take `CC1CCCCN1C(=O)CSc1nc(C2CC2)nc2c1cnn2-c1ccccc1` (centres undefined): the activity change, negative = cytotoxicity is 39.5% (inactive).

For the molecule `COc1ccc(CNC(=S)NCc2ccc(OC(C)C)cc2)cc1`, the activity change, negative = cytotoxicity was 19.2% (inactive).

Regarding `Cc1ccc(S(=O)(=O)Nc2ccc3c(c2)C(=O)N([C@H](C)CO)C[C@H](C)[C@@H](CN(C)Cc2ccccc2)O3)cc1`, the activity change, negative = cytotoxicity is 43.1% (inactive).

For the molecule `CC(C)CC#Cc1cnc2c(c1)C(=O)N([C@H](C)CO)C[C@@H](C)[C@@H](CN(C)C(=O)c1ccc3c(c1)OCO3)O2`, the activity change, negative = cytotoxicity was 33.9% (inactive).

Take `CNC[C@@H]1OCCCC[C@H](C)Oc2ccc(NC(=O)NC(C)C)cc2C(=O)N([C@H](C)CO)C[C@H]1C`: the activity change, negative = cytotoxicity is 14.1% (inactive).

On to `CC(=O)N1[C@@H](CO)[C@H](c2ccc(-c3ccccc3)cc2)[C@@H]1CNC(=O)C1CC1`, for which the activity change, negative = cytotoxicity was 13.9% (inactive).

For the molecule `COc1cccc(S(=O)(=O)Nc2ccc3c(c2)OC[C@H](C)NC[C@@H](C)[C@H](OC)CN(C)C3=O)c1`, the activity change, negative = cytotoxicity is -4.71% (inactive).

In the case of `C[C@H]1CN([C@@H](C)CO)C(=O)c2cc(Br)cnc2O[C@@H]1CN(C)Cc1ccccn1`, the activity change, negative = cytotoxicity is 22.1% (inactive).

In the case of `CO[C@H]1CN(C)C(=O)c2ccc(NC(=O)C3CC3)cc2OC[C@@H](C)N(Cc2ccc(F)cc2)C[C@@H]1C`, the activity change, negative = cytotoxicity was 37.9% (inactive).

Turning to `C[C@@H]1CN([C@@H](C)CO)C(=O)c2cc(N(C)C)ccc2O[C@@H]1CN(C)C(=O)Nc1ccc(C(F)(F)F)cc1`, the activity change, negative = cytotoxicity was -29.4% (inactive).

Regarding `Cc1noc(C)c1NC(=O)Nc1ccc2c(c1)C(=O)N([C@@H](C)CO)C[C@H](C)[C@H](CN(C)CC1CCCCC1)O2`, the activity change, negative = cytotoxicity is -11.6% (inactive).

As for `C[C@@H]1CCCCO[C@@H](CN(C)C(=O)CCCN(C)C)[C@@H](C)CN([C@H](C)CO)C(=O)c2cc(NC(=O)Cc3ccccc3)ccc2O1`, the activity change, negative = cytotoxicity was 13.4% (inactive).

On to `C[C@H](CO)N1C[C@H](C)[C@@H](CN(C)S(=O)(=O)c2ccccc2)Oc2c(NC(=O)Nc3cccc4ccccc34)cccc2C1=O`, for which the activity change, negative = cytotoxicity is 35.2% (inactive).

As to `Cc1noc(C)c1NC(=O)N(C)C[C@H]1Oc2ccc(NC(=O)C3CC3)cc2CC(=O)N([C@@H](C)CO)C[C@H]1C`, the activity change, negative = cytotoxicity was 0.766% (inactive).

Regarding `C/C=C/c1cnc2c(c1)C(=O)N([C@H](C)CO)C[C@@H](C)[C@@H](CN(C)C(=O)C1CCCCC1)O2`, the activity change, negative = cytotoxicity is 38.1% (inactive).

On to `CCCNC(=O)C[C@@H]1CC[C@H]2[C@@H](COC[C@H](O)CN2Cc2ccccc2F)O1`, for which the activity change, negative = cytotoxicity was 22.6% (inactive).

Take `C[C@H](CO)N1C[C@H](C)[C@@H](CN(C)Cc2ccc(Oc3ccccc3)cc2)Oc2ccc(NS(=O)(=O)c3cn(C)cn3)cc2CC1=O`: the activity change, negative = cytotoxicity was -30.9% (inactive).

As for `C[C@H](CO)N1C[C@H](C)[C@H](CN(C)C(=O)Nc2ccc3c(c2)OCO3)Oc2ncc(-c3ccc(F)cc3)cc2C1=O`, the activity change, negative = cytotoxicity is -18.8% (inactive).

As to `COCC#Cc1cnc2c(c1)C(=O)N([C@@H](C)CO)C[C@H](C)[C@H](CN(C)C(=O)Nc1ccc(OC)cc1)O2`, the activity change, negative = cytotoxicity is 21.8% (inactive).

In the case of `O=C(N[C@H]1CC[C@@H](CCn2cc(-c3ccccc3)nn2)O[C@@H]1CO)c1cnccn1`, the activity change, negative = cytotoxicity is 40.7% (inactive).

Consider `O=C(c1cccc(F)c1)N1CCCCN2[C@@H](CO)[C@H](c3ccc(-c4ccncc4)cc3)[C@@H]2C1`, for which the activity change, negative = cytotoxicity is 2.55% (inactive).

For the molecule `CO[C@@H]1CN(C)C(=O)c2ccc(NC(=O)Nc3ccccc3)cc2OC[C@H](C)N(C(C)=O)C[C@H]1C`, the activity change, negative = cytotoxicity was -7.15% (inactive).

Consider `C=CCNC(=O)CN(c1ccc(F)cc1)S(=O)(=O)c1ccc(OC)cc1`, for which the activity change, negative = cytotoxicity was -6.42% (inactive).

With `CCCC(=O)Nc1ccc2c(c1)OC[C@H](C)N(Cc1ccccn1)C[C@H](C)[C@H](OC)CN(C)C2=O`, the activity change, negative = cytotoxicity is 16.2% (inactive).

For the molecule `COCC(=O)NC[C@@H]1N[C@@H](CO)[C@H]1c1ccc(C2=CCCC2)cc1`, the activity change, negative = cytotoxicity is 26.4% (inactive).

Regarding `CC(=O)c1cccc(NC(=S)NC2CCCCCCC2)c1`, the activity change, negative = cytotoxicity was -21.5% (inactive).

In the case of `CC(C)CC#Cc1cnc2c(c1)C(=O)N([C@@H](C)CO)C[C@@H](C)[C@@H](CN(C)C(=O)c1cccc(F)c1)O2`, the activity change, negative = cytotoxicity is -19.3% (inactive).

Regarding `O=C([C@@H]1[C@@H](CO)[C@@H]2Cn3c(cccc3=O)[C@@H]2N1CCC(F)(F)F)N1CCCCC1`, the activity change, negative = cytotoxicity is 1.78% (inactive).

With `C[C@@H]1CCCCO[C@@H](CN(C)C(=O)Nc2cccc3ccccc23)[C@@H](C)CN([C@H](C)CO)C(=O)c2cc(NS(=O)(=O)c3ccccc3)ccc2O1`, the activity change, negative = cytotoxicity is 6.51% (inactive).

Take `CCC(=O)N1CCC1(C)C(=O)Nc1ccc(C)c(C)c1` (centres undefined): the activity change, negative = cytotoxicity was -11.7% (inactive).

In the case of `C[C@@H]1CCCCO[C@@H](CN(C)S(=O)(=O)c2cccs2)[C@H](C)CN([C@@H](C)CO)C(=O)c2cc(NC(=O)CCC(F)(F)F)ccc2O1`, the activity change, negative = cytotoxicity is -7.43% (inactive).

For `C[C@@H]1CN([C@@H](C)CO)C(=O)c2cc(NS(=O)(=O)c3cn(C)cn3)ccc2O[C@@H]1CN(C)C(=O)Nc1cccc2ccccc12`, the activity change, negative = cytotoxicity was -15.2% (inactive).

Regarding `C[C@H]1CN([C@@H](C)CO)C(=O)c2cc(-c3ccc(F)cc3)cnc2O[C@@H]1CN(C)CC1CCCCC1`, the activity change, negative = cytotoxicity was -16.9% (inactive).

Take `C[C@H]1CN([C@@H](C)CO)C(=O)c2cc(NC(=O)CCN3CCOCC3)ccc2O[C@@H]1CN(C)Cc1ccc(C(=O)O)cc1`: the activity change, negative = cytotoxicity is 36.2% (inactive).

As for `Cc1cc(Cl)ccc1NC(=S)NCc1ccc(F)cc1`, the activity change, negative = cytotoxicity was 6.1% (inactive).

Take `O=C(C[C@@H]1CC[C@@H](NC(=O)c2cccnc2)[C@@H](CO)O1)NCCN1CCCCC1`: the activity change, negative = cytotoxicity was -2.13% (inactive).

On to `Cc1noc(C)c1S(=O)(=O)Nc1ccc2c(c1)C(=O)N([C@@H](C)CO)C[C@H](C)[C@@H](CN(C)Cc1ccc3c(c1)OCO3)OCCCC[C@@H](C)O2`, for which the activity change, negative = cytotoxicity is 45.4% (inactive).

`O=C(C[C@@H]1CC[C@H]2[C@@H](COC[C@H](O)CN2Cc2ccccc2F)O1)NC1CCC1`: the activity change, negative = cytotoxicity is -8.5% (inactive).

Take `CO[C@H]1CN(C)C(=O)c2cc(NS(=O)(=O)c3ccc(C)cc3)ccc2OC[C@H](C)N(C)C[C@H]1C`: the activity change, negative = cytotoxicity was 13.7% (inactive).

For the molecule `O=C(C[C@@H]1CC[C@H](NC(=O)Cc2ccccn2)[C@@H](CO)O1)NCCc1ccccc1`, the activity change, negative = cytotoxicity is -8.35% (inactive).

As to `O=C1CCC(C(=O)Nc2cccc(C(F)(F)F)c2)N1` (centres undefined), the activity change, negative = cytotoxicity is 22% (inactive).

On to `CC(C)NC(=O)Nc1cccc2c1O[C@@H](CN(C)C(=O)Nc1ccccc1)[C@@H](C)CN([C@@H](C)CO)C2=O`, for which the activity change, negative = cytotoxicity is -13.9% (inactive).

Take `CC(=O)N1[C@@H]2c3ccc(-c4ccccc4)c(=O)n3C[C@H]1[C@H](CO)[C@H]2C(=O)Nc1ccccc1`: the activity change, negative = cytotoxicity was 17.2% (inactive).

Consider `CC(C)NC(=O)N(C)C[C@@H]1OCCCC[C@H](C)Oc2ccc(NC(=O)c3ccccc3)cc2C(=O)N([C@H](C)CO)C[C@H]1C`, for which the activity change, negative = cytotoxicity is -12.5% (inactive).

Take `CN(C)CCCn1c(=O)n(C2CCCCC2)c(=O)c2c3c(sc21)CCCCC3`: the activity change, negative = cytotoxicity was 50.5% (inactive).

`C[C@H]1CN([C@@H](C)CO)C(=O)c2cc(NC(=O)Nc3cccc4ccccc34)ccc2O[C@@H]1CN(C)C(=O)Nc1ccc(C(F)(F)F)cc1`: the activity change, negative = cytotoxicity was 1.29% (inactive).

Consider `CO[C@@H]1CN(C)C(=O)c2cc(NS(=O)(=O)C3CCCCC3)ccc2OC[C@H](C)NC[C@@H]1C`, for which the activity change, negative = cytotoxicity was 0.127% (inactive).

Regarding `Cc1ccc(S(=O)(=O)N(CC(=O)NCCSC2CCCCC2)c2ccccc2F)cc1`, the activity change, negative = cytotoxicity was 5.79% (inactive).

As to `CO[C@H]1CN(C)C(=O)c2cc(NS(=O)(=O)CC(F)(F)F)ccc2OC[C@H](C)N(Cc2cccnc2)C[C@@H]1C`, the activity change, negative = cytotoxicity was 20.5% (inactive).

Consider `COCC(=O)NC[C@H]1N[C@H](CO)[C@@H]1c1ccc(C2=CCCC2)cc1`, for which the activity change, negative = cytotoxicity was 16.1% (inactive).

On to `CCCC(=O)N1CCCC1(C)C(=O)Nc1cc(C)ccc1C` (centres undefined), for which the activity change, negative = cytotoxicity was 3.87% (inactive).

In the case of `Cc1cccc(-c2ccc([C@H]3[C@H](CO)N4CCCCN(C(=O)c5ccc6c(c5)OCO6)C[C@@H]34)cc2)c1`, the activity change, negative = cytotoxicity is 70.3% (inactive).

`CCC(=O)N1C[C@H](O)COC[C@@H]2O[C@@H](CC(=O)NCc3ccccc3Cl)CC[C@H]21`: the activity change, negative = cytotoxicity is 1.37% (inactive).

The test is the same for the next values; noted with them: HEK293T viability, ATP luminescence (CellTiter-Glo), 48 h; at 30 µM (top of the series).
For the molecule `COC(=O)C1=C(C)N(CC(C)C)C(=S)NC1c1ccc(Cl)cc1` (centres undefined), the activity change, negative = cytotoxicity is -20.8% (inactive).

Staying with this test, now noted: HEK293T viability, ATP luminescence (CellTiter-Glo), 48 h; at 35 µM (top of the series).
As for `Cc1cccc(N2CCN(C(=O)C3CCC(=O)N3C(C)C)CC2C)c1` (centres undefined), the activity change, negative = cytotoxicity is 21% (inactive).

The test is the same for the next values; noted with them: HEK293T viability, ATP luminescence (CellTiter-Glo), 48 h; at 42 µM (top of the series).
Take `Cc1ccc(C)c(NC(=O)C2(C)CCCN2C(=O)C(C)C)c1` (centres undefined): the activity change, negative = cytotoxicity is -23.6% (inactive).

Consider `CCCC(=O)N1CCCC1(C)C(=O)Nc1cc(C)ccc1C` (centres undefined), for which the activity change, negative = cytotoxicity was -20.6% (inactive).
